Data taken from ChEMBL document CHEMBL1201862, “PubChem BioAssay data set” (2004).
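Results reflect a 48-hour exposure of cells in 96-well plates to compound at five concentrations. The concentration for 50% growth inhibition is given as GI50.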 Active and inactive are the calls of the source. Rule as the data show it: active = GI50 up to about 1.1 µM and inactive = higher.

Columns and labels:
Experiment in all cases: growth of human tumour cells (NCI), 48 h
BT-549 = test system: BT-549
KM12 = test system: KM12
UACC-62 = test system: UACC-62
Hs-578T = test system: Hs-578T
ACHN = test system: ACHN
Malme-3M = test system: Malme-3M
HT-29 = test system: HT-29
LOX IMVI = test system: LOX IMVI
HCT-116 = test system: HCT-116
SR = test system: SR
HL-60 = test system: HL-60
T47D = test system: T47D
SK-OV-3 = test system: SK-OV-3
NCI-H522 = test system: NCI-H522
SF-539 = test system: SF-539
SK-MEL-2 = test system: SK-MEL-2
OVCAR-5 = test system: OVCAR-5
SNB-19 = test system: SNB-19
OVCAR-8 = test system: OVCAR-8
SN12C = test system: SN12C
DU-145 = test system: DU-145
RPMI-8226 = test system: RPMI-8226
A498 = test system: A498
HCT-15 = test system: HCT-15
OVCAR-4 = test system: OVCAR-4
A549 = test system: A549
M14 = test system: M14
SF-268 = test system: SF-268
TK-10 = test system: TK-10
MDA-N = test system: MDA-N
MDA-MB-231 = test system: MDA-MB-231
PC-3 = test system: PC-3
IGROV-1 = test system: IGROV-1
SK-MEL-5 = test system: SK-MEL-5
EKVX = test system: EKVX
HCC 2998 = test system: HCC 2998
NCI/ADR-RES = test system: NCI/ADR-RES
CCRF-CEM = test system: CCRF-CEM
CAKI-1 = test system: CAKI-1
MCF7 = test system: MCF7
K562 = test system: K562
MOLT-4 = test system: MOLT-4
NCI-H226 = test system: NCI-H226
RXF 393 = test system: RXF 393
HOP-62 = test system: HOP-62
NCI-H23 = test system: NCI-H23
UACC-257 = test system: UACC-257
MDA-MB-435 = test system: MDA-MB-435
SW-620 = test system: SW-620
COLO 205 = test system: COLO 205
UO-31 = test system: UO-31
SK-MEL-28 = test system: SK-MEL-28
SNB-75 = test system: SNB-75
OVCAR-3 = test system: OVCAR-3
786-0 = test system: 786-0
NCI-H460 = test system: NCI-H460
SF-295 = test system: SF-295
HOP-92 = test system: HOP-92
U-251 = test system: U-251

Measured: GI50

OCCOCCO[P+]1(OCCOCCO)n2c3ccc2C(c2ccccc2)=C2C=CC(=N2)C(c2ccccc2)=c2ccc(n21)=C(c1ccccc1)C1=NC(=C3c2ccccc2)C=C1
1510 nM: HCT-15
inactive: A498 8570 nM | NCI/ADR-RES 7140 nM | CAKI-1 1680 nM | UO-31 1860 nM
active: BT-549 38.5 nM | KM12 33.1 nM | UACC-62 61.8 nM | Hs-578T 127 nM | ACHN 350 nM | Malme-3M 119 nM | HT-29 84.5 nM | LOX IMVI 98.9 nM | HCT-116 83.6 nM | SR 1000 nM | HL-60 23.5 nM | T47D 40 nM | SK-OV-3 85.9 nM | NCI-H522 186 nM | SF-539 188 nM | SK-MEL-2 39.5 nM | OVCAR-5 525 nM | SNB-19 < 10 nM | OVCAR-8 174 nM | SN12C 110 nM | DU-145 112 nM | RPMI-8226 14.2 nM | OVCAR-4 209 nM | A549 113 nM | M14 272 nM | SF-268 61.8 nM | TK-10 426 nM | MDA-N 31.4 nM | MDA-MB-231 73.6 nM | PC-3 107 nM | IGROV-1 26.1 nM | SK-MEL-5 50.6 nM | EKVX 320 nM | HCC 2998 37.8 nM | CCRF-CEM 23.1 nM | MCF7 109 nM | K562 < 18.8 nM | MOLT-4 26.7 nM | NCI-H226 162 nM | RXF 393 548 nM | HOP-62 379 nM | NCI-H23 105 nM | UACC-257 26.8 nM | MDA-MB-435 31.6 nM | SW-620 184 nM | COLO 205 20.6 nM | SK-MEL-28 63.1 nM | SNB-75 49.1 nM | OVCAR-3 33 nM | 786-0 179 nM | NCI-H460 76 nM | SF-295 281 nM

CCN(CC)CCNc1ccc2ncn3c4c(OC)ccc(OC)c4c(=O)c1c23
inactive: HOP-92 11200 nM | BT-549 > 10000 nM | KM12 9160 nM | UACC-62 22600 nM | Hs-578T > 10000 nM | ACHN 4100 nM | Malme-3M 23800 nM | HT-29 > 10000 nM | SR 3720 nM | T47D > 100000 nM | SK-OV-3 19100 nM | NCI-H522 15700 nM | SF-539 20800 nM | SNB-19 20000 nM | OVCAR-8 10800 nM | SN12C > 10000 nM | DU-145 12900 nM | A498 93300 nM | OVCAR-4 6110 nM | A549 22500 nM | M14 18700 nM | SF-268 3240 nM | TK-10 > 100000 nM | MDA-N 10800 nM | MDA-MB-231 12000 nM | PC-3 > 10000 nM | IGROV-1 > 10000 nM | SK-MEL-5 17200 nM | EKVX 15300 nM | HCC 2998 15300 nM | NCI/ADR-RES 5600 nM | CCRF-CEM 1220 nM | CAKI-1 86500 nM | MCF7 3570 nM | K562 10400 nM | MOLT-4 1450 nM | NCI-H226 90800 nM | RXF 393 1710 nM | HOP-62 > 100000 nM | U-251 15500 nM | NCI-H23 22600 nM | UACC-257 > 100000 nM | MDA-MB-435 > 10000 nM | UO-31 > 100000 nM | SK-MEL-28 21200 nM | SNB-75 10600 nM | OVCAR-3 30300 nM | 786-0 11500 nM | NCI-H460 4400 nM | SF-295 13300 nM
active: HCT-116 587 nM | SW-620 853 nM | COLO 205 841 nM
16000 nM: HCT-15
